Measured values reported in patent publication US10919887B2, “Salts and solid forms of a monobactam antibiotic” (Novartis AG, priority 2015, dated 2021).
Converted amounts (≈) assume the structure as drawn.

Key:
[1] = Stability of solid forms as relative humidity is varied; format: physicochemical
Experimental: This material is referred to herein as Form 5.
Water (20 mL) and THF (40 mL) were mixed in a flask, and Compound X (10 g, ca. 91% pure by HPLC) was added with stirring at 25° C. to provide a clear yellow solution. A 20 mg sample of Form 5 (see above) was added as a seed, and the mixture was stirred for 50 mins. THF (140 mL) was then added slowly, over 1 hr and the mixture was stirred for 2 hr more. The suspension was filtered, and the wet cake was washed with cold (<5° C.) water, then dried at 20-25° C. for 11 hrs at 100 mbar pressure, providing 6.6 g of Form 5 trihydrate that was 97.8% pure by HPLC. It appears stable when stored at 25-50% relative humidity, preferably 30-40% RH; at lower or higher relative humidity, it may evolve to different hydrated states as described herein.
Compound X of Form 1 (anhydrate) was exposed to 43% relative humidity for one day or more. The crystalline product appears to be a sesquihydrate (Compound X-1.5 H2O) based on water content determination. Note that Form 5, the trihydrate, under similar conditions would be stable, yet when starting with the anhydrate, it appears to equilibrate as a sequihdyrate under these conditions and remains in that form for at least 14 days when kept at the same relative humidity. This crystalline form produces the XRPD spectrum shown in FIG. 11, and is referred to herein as Form 10. The table below summarizes the main peaks in the XRPD of this sample.
Compound X of Form 5, the trihydrate, was exposed to relative humidity of 22% for about 3 days to provide a crystalline solid characterized as a dihydrate (Compound X-2H2O) based on water content analysis. […] The dihydrate, referred to herein as Form 11, produced the XRPD spectrum shown in FIG. 12: the main peaks in that XRPD spectrum are listed in the following table.
Compound X of Form 5 was exposed to air with a relative humidity of 65% for about 3 days, providing a crystalline material characterized as a tetra-hydrate based on water content analysis. […] The tetrahydrate, referred to herein as Form 12, produced the XRPD spectrum shown in FIG. 13: the main peaks in that XRPD spectrum are listed in the following table.
Note that at 92% relative humidity, Compound X appears to be a mixture of a crystal form characterized as hexahydrate mixed with the tetrahydrate of Form 12. By comparison, the anhydrate (Form 1) preferentially converts to a sesquihydrate as the relative humidity is increased to 43%, and evolves to trihydrate and tetrahydrate at higher relative humidities.

[2] = Stability testing of solid salts at 25° C. and 40° C., purity by HPLC; format: physicochemical; conditions: solid salt
Experimental: Salts of Compound X were prepared by adding a base (1.0 or 2.0 equiv.) to Compound X in water, and lyophilizing the solution. The solids thus obtained appear to be amorphous by XRPD. In this manner, formation of salts of Compound X were attempted with sodium hydroxide, (L)-lysine, (L)-arginine, calcium hydroxide, meglumine, and magnesium hydroxide.
Samples of the disodium salt and the di-(L)-arginine salt as solids were subjected to stability testing at 25° C. and 40° C. The sample of sodium salt was 97.2% pure by HPLC initially, and after 6 weeks at 25° C., it was still 96.2% pure. The same material held at 40° C. was 94.8% pure after 3 weeks, and 93.6% pure after 6 weeks. Significant impurities that appear or increase during the study appear at relative retention times (RRT) 0.34 and 1.11 (with Compound X defined as RRT=1).
The arginine salt was 97.3% pure by HPLC initially, and was 96.3% pure after 6 weeks at 25° C. At 40° C., its purity dropped to 95.1% after 3 weeks and 94.2% after 6 weeks. Significant impurities that appear or increase during this study appear at relative retention times (RRT) 1.09, 1.11 and 1.13 (with Compound X defined as RRT=1). The HPLC traces for the samples from these stability studies after 6 weeks at 25° C. and 40° C. respectively are shown in FIGS. 10 and 11. The lower trace in each Figure is a sample used to measure the limit of quantitation (LOQ); the next trace above that represents the sample of Compound X used for salt formation; the next trace above that one is for the arginine salt after 6 weeks; and the next (top) trace is for the sodium salt after 6 weeks.
HPLC Conditions for the stability studies (FIGS. 10 and 11):
Agilent 1290 system with UV detector at 260 nm
Acquity HSS T3 column, 100 mm×2.1 mm ID; 1.8 μm particle size (supplied by Waters)
• A: 0.05% TFA in water • B: 0.05% TFA in methanol Flow rate: 0.45 mL/min Gradient (A/B ratio): 97:3 for 8 minutes; 75:25 for 3 minutes; 0:100 for 1 minute

[3] = Stability of Compound X and its salts in aqueous solution; format: physicochemical; conditions: salts made with 1.0 or 2.0 equiv. base, lyophilized; for aqueous media for intravenous use
Excerpt: It is important for a drug product to be stable enough to avoid significant degradation when it is shipped and stored under commercially practical conditions. The inventors have discovered that Compound X in solution is preferably used and stored at a pH between 4 and 6, preferably between 4.0 and 5.5, for maximum stability in the presence of moisture. Optimal solution stability is achieved at a pH of about 4.0 to 5.5 Accordingly, the invention provides pharmaceutical compositions comprising Compound X at a pH between 4 and 6, preferably between 4.0 and 5.5, and more preferably at a pH of about 5±0.5 or at pH of 5±0.2. Suitable compositions comprise Compound X in an aqueous solution, such as a dextrose or saline solution, which may be isotonic, and may contain other substances such as stabilizers, antioxidants, buffers or pH modifiers, nutrients, and the like. In some of these embodiments, the desired pH is achieved by combining Compound X and a pH modifier suitable to achieve the desired pH in an aqueous solution. Suitable pH modifiers include but are not limited to sodium hydroxide, sodium carbonate, sodium bicarbonate, potassium carbonate, potassium hydroxide, amines such as TRIS (tris(hydroxymethyl)aminomethane), and amino acids such as arginine, lysine, histidine, and the like. Known monobactams, including aztreonam, have been formulated with arginine. […]

[4] = system: E. coli NB27273-CDY0026 (parent); experiment: MIC by broth microdilution, isogenic E. coli parent strain; format: cell-based; conditions: Escherichia coli, read-out: Strain 1 MIC
Experimental: Bacterial isolates were cultivated from −70° C. frozen stocks by two consecutive overnight passages at 35° C. in ambient air on 5% blood agar (Remel, Lenexa, Kans.). Quality control and P. aeruginosa ATCC 27853) is from the American Type Culture Collection (ATCC; Rockville, Md.) and PAO1 was received from Dr. K. Poole.
Strain NB27273 (BW25113 pspB::Km^r) was obtained from the Keio transposon insertion collection. The strain has the pspB gene replaced by a kanamycin resistance marker (BW25113 pspB::Km^r). This strain was cured of the transposon in pspB via FLP recombinase using published methodology. The resulting strain, BW25113 pspB, was used as a host for multicopy vectors expressing key β-lactamases. Multicopy plasmids directing constitutive expression of β-lactamases were established as follows: Synthetic, codon optimized genes encoding E. coli KPC2 and SHV12-lactamases were made by DNA2.0 (Palo Alto, Calif.). Each of the synthetic fragments were designed to contain NotI and NcoI restriction sites at their termini, allowing ligation into a NotI/NcoI digested pET28a(+) derivative for protein expression. […]

In the case of `Nc1nc(/C(=N/OC2(C(=O)O)CC2)C(=O)N[C@@H]2C(=O)N(S(=O)(=O)O)[C@@H]2CN2CCOC2=O)cs1` [Form 5], the “form change at high relative humidity” value ([1]; RH above 80%) is reported as “converts to Form 4 within a day” and the “relative humidity at which the form appears stable when stored” value ([1]; storage of Form 5 trihydrate) is reported as 25-50%.

In the case of `Nc1nc(/C(=N/OC2(C(=O)O)CC2)C(=O)N[C@@H]2C(=O)N(S(=O)(=O)O)[C@@H]2CN2CCOC2=O)cs1` [Form 10], the “time the form remains unchanged” value ([1]; kept at 43% relative humidity) is reported as “at least 14 days”.

With `Nc1nc(/C(=N/OC2(C(=O)O)CC2)C(=O)N[C@@H]2C(=O)N(S(=O)(=O)O)[C@@H]2CN2CCOC2=O)cs1` [Form 12] the “form change when relative humidity is reduced” value ([1]; relative humidity reduced to about 40%) was “readily reverts to the trihydrate (Form 5)”.

For `N=C(N)NCCC[C@H](N)C(=O)O.N=C(N)NCCC[C@H](N)C(=O)O.Nc1nc(/C(=N/OC2(C(=O)O)CC2)C(=O)N[C@@H]2C(=O)N(S(=O)(=O)O)[C@@H]2CN2CCOC2=O)cs1` [arginine salt], the “purity by HPLC” value ([2]; after 3 weeks at 40° C.) was 95.1%, the “purity by HPLC” value ([2]; after 6 weeks at 25° C.) was 96.3% and the “purity by HPLC” value ([2]; after 6 weeks at 40° C.) was 94.2%. The “purity by HPLC” value ([2]; initially) was 97.3% and the “stability of salts” value [3] was “particularly stable”.

In the case of `C[C@H]1[C@H](NC(=O)/C(=N\OC(C)(C)C(=O)O)c2csc(N)n2)C(=O)N1S(=O)(=O)O` [compound 1], the MIC [4] is reported as 0.125 µg/mL (≈ 0.287 µM).
